Measurements: patent US9951068B2 (Proximagen Limited, priority 2013, dated 2018)
Where a name gives a salt, the structure may show the parent alone.

Target: purified recombinantly expressed human SSAO (Homo sapiens (Human), UniProt Q16853)
Assay: SSAO enzyme inhibition assay (HRP-coupled hydrogen peroxide detection or 14C-benzaldehyde detection, benzylamine substrate)
Type: biochemical
Settings: SSAO inhibitory activity, human recombinant SSAO, RT
Procedure: All primary assays were performed at RT. with purified recombinantly expressed human SSAO. Enzyme was prepared essentially as described in Öhman et al. (Protein Expression and Purification 46 (2006) 321-331). In addition, secondary- and selectivity assays were performed using SSAO prepared from various tissues or purified rat recombinant SSAO. The enzyme activity was assayed with benzylamine as substrate by measuring either benzaldehyde production, using ^14C-labeled substrate, or by utilizing the production of hydrogen peroxide in a horseradish peroxidase (HRP) coupled reaction. Briefly, test compounds were dissolved in dimethyl sulfoxide (DMSO) to a concentration of 10 mM. Dose-response measurements were assayed by either creating 1:10 serial dilutions in DMSO to produce a 7 point curve or by making 1:3 serial dilutions in DMSO to produce 11 point curves.
In a horseradish peroxidase (HRP) coupled reaction, hydrogen peroxide oxidation of 10-acetyl-3,7-dihydroxyphenoxazine produced resorufin, which is a highly fluorescent compound (Zhout and Panchuk-Voloshina. Analytical Biochemistry 253 (1997) 169-174; Amplex® Red Hydrogen Peroxide/peroxidase Assay kit, Invitrogen A22188). Enzyme and compounds in 50 mM sodium phosphate, pH 7.4 were set to pre-incubate in flat-bottomed microtiter plates for approximately 15 min before initiating the reaction by addition of a mixture of HRP, benzylamine and Amplex reagent. Benzylamine concentration was fixed at a concentration corresponding to the Michaelis constant, determined using standard procedures. Fluorescence intensity was then measured at several time points during 1-2 h, exciting at 544 nm and reading the emission at 590 nm. For the human SSAO assay final concentrations of the reagents in the assay wells were: SSAO enzyme 1 ug/ml, benzylamine 100 uM, Amplex reagent 20 uM, HRP 0.1 U/mL and varying concentrations of test compound. The inhibition was measured as % decrease of the signal compared to a control without inhibitor (only diluted DMSO). The background signal from a sample containing no SSAO enzyme was subtracted from all data points. Data was fitted to a four parameter logistic model and IC50 values were calculated using the GraphPad Prism 4 or XLfit 4 programs.
SSAO activity was assayed using 14C-labeled benzylamine and analysed by measuring radioactive benzaldehyde. In a white 96-well optiplate (Packard), 20 uL of diluted test compound was pre-incubated at room temperature with 20 uL SSAO enzyme for approximately 15 min with continuous agitation. All dilutions were made with PBS. The reaction was initiated by adding 20 uL of the benzylamine substrate solution containing [7-14C] Benzylamine hydrochloride (CFA589, GE Healthcare). The plate was incubated for 1 h as above after which the reaction was stopped by acidification (10 uL 1M aq HCl). Then 90 uL Micro Scint-E solution (Perkin-Elmer) was added to each well and the plate was continuously mixed for 15 min. Phase separation occurred instantly and activity was read in a Topcount scintillation counter (Perkin-Elmer). In the final reaction well, the human recombinant SSAO concentration was 10 ug/ml. In order to optimize sensitivity, the substrate concentration was decreased as compared to the HRP coupled assay in order to get a higher fraction of radioactive product. In the human SSAO assay, benzylamine concentration was 40 uM (0.2 uCi/mL). Data was analysed as above.

purified recombinantly expressed human SSAO, sequence (Q16853 29-763): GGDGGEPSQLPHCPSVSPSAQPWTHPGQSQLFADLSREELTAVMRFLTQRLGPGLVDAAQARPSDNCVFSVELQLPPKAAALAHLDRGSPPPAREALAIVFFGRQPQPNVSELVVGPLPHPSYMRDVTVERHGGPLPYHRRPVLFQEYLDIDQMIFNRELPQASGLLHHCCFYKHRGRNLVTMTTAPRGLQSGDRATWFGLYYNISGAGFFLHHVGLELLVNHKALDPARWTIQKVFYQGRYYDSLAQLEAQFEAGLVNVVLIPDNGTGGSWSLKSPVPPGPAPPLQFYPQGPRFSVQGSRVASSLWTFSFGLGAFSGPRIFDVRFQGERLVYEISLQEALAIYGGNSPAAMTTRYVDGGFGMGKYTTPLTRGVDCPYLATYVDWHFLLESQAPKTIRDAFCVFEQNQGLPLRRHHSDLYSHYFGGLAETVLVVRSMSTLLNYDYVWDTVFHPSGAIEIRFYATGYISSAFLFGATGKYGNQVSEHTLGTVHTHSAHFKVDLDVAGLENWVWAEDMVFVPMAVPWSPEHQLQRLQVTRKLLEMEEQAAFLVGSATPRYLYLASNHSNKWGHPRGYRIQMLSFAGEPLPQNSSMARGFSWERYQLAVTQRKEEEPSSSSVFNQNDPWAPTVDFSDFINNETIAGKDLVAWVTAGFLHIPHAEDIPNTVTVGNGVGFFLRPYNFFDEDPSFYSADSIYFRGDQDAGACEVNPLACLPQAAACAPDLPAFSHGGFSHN

| SMILES | IC50 |
| --- | --- |
| Clc1ccc(-n2c(-c3ccc(N4CCOCC4)nn3)nc3ccncc32)cc1 [Example 4, 4-{6-[3-(4-Chlorophenyl)-3H-imidazo[4,5-c]pyridin-2-yl]pyridazin-3-yl}morpholine] | < 50 nM |
| NC1CCN(c2ccc(-c3nc4ccncc4n3-c3ccc(Cl)cc3)cn2)CC1 [Example 8, 1-{5-[3-(4-Chlorophenyl)-3H-imidazo[4,5-c]pyridin-2-yl]pyridin-2-yl}piperidin-4-amine] | < 50 nM |
| Fc1ccc(-n2c(-c3cnc(NCC4CC4)nc3)nc3ccncc32)cc1 [Example 9, N-(Cyclopropylmethyl)-5-[3-(4-fluorophenyl)-3H-imidazo[4,5-c]pyridin-2-yl]pyrimidin-2-amine] | < 50 nM |
| Cc1cc(N2CCOCC2)ncc1-c1nc2ccncc2n1-c1ccc(Cl)cc1F [Example 22, 4-{5-[3-(4-Chloro-2-fluorophenyl)-3H-imidazo[4,5-c]pyridin-2-yl]-4-methylpyridin-2-yl}morpholine] | < 50 nM |
| Fc1ccc(-n2c(-c3cnc(N4CCCOCC4)nc3)nc3ccncc32)cc1 [Example 25, 4-{5-[3-(4-Fluorophenyl)-3H-imidazo[4,5-c]pyridin-2-yl]pyrimidin-2-yl}-1,4-oxazepane] | < 50 nM |
| Cc1nc(N2CCOCC2)ncc1-c1nc2ccncc2n1-c1ccc(Cl)cc1F [Example 27, 4-{5-[3-(4-Chloro-2-fluorophenyl)-3H-imidazo[4,5-c]pyridin-2-yl]-4-methylpyrimidin-2-yl}morpholine] | < 50 nM |
| Cn1ccc(-c2nc3ccncc3n2-c2ccc(Cl)cc2)cc1=O [Example 32, 4-[3-(4-Chlorophenyl)-3H-imidazo[4,5-c]pyridin-2-yl]-1-methyl-1,2-dihydropyridin-2-one] | < 50 nM |
| COCCCNc1ncc(-c2nc3ccncc3n2-c2ccc(C)cc2)cn1 [Example 37, N-(3-Methoxypropyl)-5-[3-(4-methylphenyl)-3H-imidazo[4,5-c]pyridin-2-yl]pyrimidin-2-amine] | < 50 nM |
| Cc1ccc(-n2c(-c3cnc(NCCOC(C)C)nc3)nc3ccncc32)cc1 [Example 39, 5-[3-(4-Methylphenyl)-3H-imidazo[4,5-c]pyridin-2-yl]-N-[2-(propan-2-yloxy)ethyl]pyrimidin-2-amine] | < 50 nM |
| Fc1ccc(-n2c(-c3ccc(N4CCOCC4)nc3)nc3ccncc32)c(F)c1 [Example 41, 4-{5-[3-(2,4-Difluorophenyl)-3H-imidazo[4,5-c]pyridin-2-yl]pyridin-2-yl}morpholine] | < 50 nM |
| CCOCCNc1ncc(-c2nc3ccncc3n2-c2ccc(C)cc2)cn1 [Example 43, N-(2-Ethoxyethyl)-5-[3-(4-methylphenyl)-3H-imidazo[4,5-c]pyridin-2-yl]pyrimidin-2-amine] | < 50 nM |
| Clc1ccc(-n2c(-c3ccc(N4CCOCC4)nc3)nc3ccncc32)cc1 [Example 47, 4-{5-[3-(4-Chlorophenyl)-3H-imidazo[4,5-c]pyridin-2-yl]pyridin-2-yl}morpholine] | < 50 nM |
| Clc1ccc(-n2c(-c3ccc(Cn4ccnc4)cc3)nc3ccncc32)cc1 [Example 48, 1-({4-[3-(4-Chlorophenyl)-3H-imidazo[4,5-c]pyridin-2-yl]phenyl}methyl)-1H-imidazole] | < 50 nM |
| Clc1ccc(-n2c(-c3ccc(CN4CCOCC4)cc3)nc3ccncc32)cc1 [Example 49, 4-({4-[3-(4-Chlorophenyl)-3H-imidazo[4,5-c]pyridin-2-yl]phenyl}methyl)morpholine] | < 50 nM |
| Clc1ccc(-n2c(-c3cnc(N4CCOCC4)nc3)nc3ccncc32)cc1 [Example 51, 4-{5-[3-(4-Chlorophenyl)-3H-imidazo[4,5-c]pyridin-2-yl]pyrimidin-2-yl}morpholine] | < 50 nM |
| Cc1cc(F)ccc1-n1c(-c2cnc(N3CCOCC3)nc2)nc2ccncc21 [Example 55, 4-{5-[3-(4-Fluoro-2-methylphenyl)-3H-imidazo[4,5-c]pyridin-2-yl]pyrimidin-2-yl}morpholine] | < 50 nM |

| SMILES | IC50 |
| --- | --- |
| Fc1ccc(-n2c(-c3ccc(N4CCOCC4)nc3)nc3ccncc32)c(Cl)c1 [Example 61, 4-{5-[3-(2-Chloro-4-fluorophenyl)-3H-imidazo[4,5-c]pyridin-2-yl]pyridin-2-yl}morpholine] | < 50 nM |
| Oc1ccc(-n2c(-c3ccc(N4CCOCC4)nc3)nc3ccncc32)cc1 [Example 65, 4-{2-[6-(Morpholin-4-yl)pyridin-3-yl]-3H-imidazo[4,5-c]pyridin-3-yl}phenol] | < 50 nM |
| Cc1ccc(-n2c(-c3ccc(N4CCOCC4)nc3)nc3ccncc32)c(F)c1 [Example 67, 4-{5-[3-(2-Fluoro-4-methylphenyl)-3H-imidazo[4,5-c]pyridin-2-yl]pyridin-2-yl}morpholine] | < 50 nM |
| Fc1ccccc1-n1c(-c2ccc(N3CCOCC3)nc2)nc2ccncc21 [Example 68, 4-{5-[3-(2-Fluorophenyl)-3H-imidazo[4,5-c]pyridin-2-yl]pyridin-2-yl}morpholine] | < 50 nM |
| Cc1ccc(-n2c(-c3cnc(N4CCOCC4)nc3)nc3ccncc32)nc1 [Example 79, 4-{5-[3-(5-Methylpyridin-2-yl)-3H-imidazo[4,5-c]pyridin-2-yl]pyrimidin-2-yl}morpholine] | < 50 nM |
| Fc1cc(Cl)ccc1-n1c(-c2cnc(N3CCCC3)nc2)nc2ccncc21 [Example 83, 5-[3-(4-Chloro-2-fluorophenyl)-3H-imidazo[4,5-c]pyridin-2-yl]-2-(pyrrolidin-1-yl)pyrimidine] | < 50 nM |
| CN(C)c1ncc(-c2nc3ccncc3n2-c2ccc(Cl)cc2F)cn1 [Example 84, 5-[3-(4-Chloro-2-fluorophenyl)-3H-imidazo[4,5-c]pyridin-2-yl]-N,N-dimethylpyrimidin-2-amine] | < 50 nM |
| CC(=O)N1CCCN(c2ccc(-c3nc4ccncc4n3-c3ccc(F)cc3)cn2)CC1 [Example 87, 1-(4-{5-[3-(4-Fluorophenyl)-3H-imidazo[4,5-c]pyridin-2-yl]pyridin-2-yl}-1,4-diazepan-1-yl)ethan-1-one; bis(trifluoroacetic acid)] | < 50 nM |
| CS(=O)(=O)NC1CCN(c2ccc(-c3nc4ccncc4n3-c3ccc(Cl)cc3)cn2)CC1 [Example 88, N-(1-{5-[3-(4-Chlorophenyl)-3H-imidazo[4,5-c]pyridin-2-yl]pyridin-2-yl}piperidin-4-yl)methanesulfonamide] | < 50 nM |
| NC(=O)N1CCN(c2ccc(-c3nc4ccncc4n3-c3ccc(Cl)cc3)cn2)CC1 [Example 90, 4-{5-[3-(4-Chlorophenyl)-3H-imidazo[4,5-c]pyridin-2-yl]pyridin-2-yl}piperazine-1-carboxamide dihydrochloride] | < 50 nM |
| O=c1cc(N2CCOCC2)[nH]cc1-c1nc2ccncc2n1-c1ccc(F)cc1 [Example 99, 5-[3-(4-Fluorophenyl)-3H-imidazo[4,5-c]pyridin-2-yl]-2-(morpholin-4-yl)-1,4-dihydropyridin-4-one] | < 50 nM |
| Cc1cc(-n2cccn2)ncc1-c1nc2ccncc2n1-c1ccc(F)cc1 [Example 102, 5-[3-(4-Fluorophenyl)-3H-imidazo[4,5-c]pyridin-2-yl]-4-methyl-2-(1H-pyrazol-1-yl)pyridine] | 50 to 200 nM |
| Cc1ccc(-n2c(-c3ccc(N4C[C@@H](C)O[C@@H](C)C4)nc3)nc3ccncc32)nc1 [Example 104, (2R,6S)-2,6-Dimethyl-4-{5-[3-(5-methylpyridin-2-yl)-3H-imidazo[4,5-c]pyridin-2-yl]pyridin-2-yl}morpholine] | < 50 nM |
| Cc1ccc(-n2c(-c3cnc(N4CCOCC4)cc3C)nc3ccncc32)cn1 [Example 107, 4-{4-Methyl-5-[3-(6-methylpyridin-3-yl)-3H-imidazo[4,5-c]pyridin-2-yl]pyridin-2-yl}morpholine] | < 50 nM |
| Cc1cc(N(C)C)ncc1-c1nc2ccncc2n1-c1ccc(F)cc1 [Example 111, 5-[3-(4-Fluorophenyl)-3H-imidazo[4,5-c]pyridin-2-yl]-N,N,4-trimethylpyridin-2-amine] | 200 to 1200 nM |
| Fc1ccc(-n2c(-c3ccc(OC4CCOC4)nc3)nc3ccncc32)cc1 (centres unmarked) [Example 112, 5-[3-(4-Fluorophenyl)-3H-imidazo[4,5-c]pyridin-2-yl]-2-(oxolan-3-yloxy)pyridine] | < 50 nM |
